Laboratory results published in US8563741B2, “CDK inhibitors containing a zinc binding moiety” (Curis, Inc., priority 2007, dated 2013).

Assays:
[1] = test system: OPM2 Multiple Myeloma xenograft tumors; assay: Anti-tumor activity in the OPM2 Multiple Myeloma nude mouse xenograft model; assay type: in vivo; conditions: 60 mg/Kg iv daily in 30% CAPTISOL
Protocol: FIG. 3 is a graph of tumor size versus time for mice bearing OPM2 Multiple Myeloma xenograft tumors receiving either 60 mg/Kg compound 9 in 30% CAPTISOL iv daily or vehicle only.
(e) An In Vivo Study of the Anti-Tumor Activity of Compound 9 in 30% CAPTISOL in the OPM2 Multiple Myeloma Nude Mouse Xenograft Model
Mice were divided into two groups of 7 mice each. Treatment began when the tumor sizes were 276±46 mm^3. Compound 9 in 30% CAPTISOL was administered to the animals daily at 60 mg/Kg iv.

CDK1/cyclinB = biological target: T1, CDK1/cyclinB (Homo sapiens, UniProt P06493); assay: CDK activity assay with p33 ATP, CDK1/cyclinB; assay type: biochemical; conditions: 1 μM ATP
T1 construct: C-terminal 6His-tagged human full length cdk1 (MW=35 kDa); 6His (C); made in house; host or cells: Sf21 insect cells (baculovirus)
T1 sequence (P06493 whole entry): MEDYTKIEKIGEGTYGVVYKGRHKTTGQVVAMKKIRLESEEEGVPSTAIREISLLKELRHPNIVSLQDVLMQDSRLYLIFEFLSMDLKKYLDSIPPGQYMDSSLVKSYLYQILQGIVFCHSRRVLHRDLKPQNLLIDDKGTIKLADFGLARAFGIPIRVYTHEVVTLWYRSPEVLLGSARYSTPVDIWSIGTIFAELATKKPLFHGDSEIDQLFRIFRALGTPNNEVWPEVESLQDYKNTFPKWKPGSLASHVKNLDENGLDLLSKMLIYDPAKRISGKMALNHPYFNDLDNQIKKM
T1 sequence (P14635 whole entry partner): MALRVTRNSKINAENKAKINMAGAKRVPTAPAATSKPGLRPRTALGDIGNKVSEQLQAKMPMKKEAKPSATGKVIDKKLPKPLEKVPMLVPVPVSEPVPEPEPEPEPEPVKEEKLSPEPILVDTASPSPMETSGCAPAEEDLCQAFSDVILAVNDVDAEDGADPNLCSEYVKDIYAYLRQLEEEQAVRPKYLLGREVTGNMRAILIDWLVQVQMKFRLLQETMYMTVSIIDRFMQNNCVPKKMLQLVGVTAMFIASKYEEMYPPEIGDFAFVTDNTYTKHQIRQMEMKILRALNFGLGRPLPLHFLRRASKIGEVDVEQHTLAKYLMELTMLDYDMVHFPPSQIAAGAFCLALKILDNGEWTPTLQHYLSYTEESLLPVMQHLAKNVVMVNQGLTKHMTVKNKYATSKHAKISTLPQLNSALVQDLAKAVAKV
Source text: CDK1/cyclinB (Accession Number for CDK1; GenBankNM_001786, for cyclinB; EMBL M25753):
C-terminal 6His-tagged human full length cdk1 (MW=35 kDa), and N-terminal GST-tagged human full length cyclin B (MW=75 kDa) were expressed individually with baculovirus system in Sf21 insect cells. Recombinant proteins were purified using Ni2+/NTA-agarose and GST-agarose, respectively. The cdk1 was then activated using CAK and repurified by Q Sepharose and Ni2+/NTA-agarose. They were then mixed in vitro to form protein complex. The purity of these protein complex was estimated to be 80.5% by SDSPAGE and Coomassie blue staining. Specific Activity of recombinant enzyme was measyre to be 1329 U/mg, where one unit of cdk1/cyclinB activity is defined as 1 nmol phosphate incorporated into 0.1 mg/ml histone H1 per minute at 30° C. with a final ATP concentration of […]. Enzyme was stored at concentration of 0.1 mg/ml in 50 mM Tris/HCl pH7.5, 150 mM NaCl, 0.1 mM EGTA, 0.03% Brij-35, 270 mM sucrose, 1 mM benzamidine, 0.2 mM PMSF, 0.1% 2-mercaptoethanol.

[2] = test system: HL60 AML xenograft tumors; assay: Anti-tumor activity in the HM60 AML nude mouse xenograft model; assay type: in vivo; conditions: for tumor growth (in words): compound 8 30 mg/Kg, compound 9 60 mg/Kg daily in 30% CAPTISOL
Protocol: FIG. 2 is a graph of tumor size versus time for mice bearing HL60 AML xenograft tumors receiving 30 mg/Kg compound 8 in 30% CAPTISOL iv daily, 60 mg/Kg compound 9 in 30% CAPTISOL iv daily or vehicle only.
(d) An In Vivo Study of the Anti-Tumor Activity of Compounds 8 and 9 in 30% CAPTISOL in the HM60 AML Nude Mouse Xenograft Model
Mice were divided into three groups of 4 mice each. Tumor volumes at the commencement of treatment were 157±56 mm^3. One group of mice received 30 mg/Kg compound 8 daily in 30% CAPTISOL, while a second group received 60 mg/Kg compound 9 in 30% CAPTISOL daily. The third group received an equivalent volume of vehicle daily.

CDK6/cyclinD3 = biological target: T2, CDK6/cyclinD3 (Homo sapiens, UniProt Q00534); assay: CDK activity assay with p33 ATP, CDK6/cyclinD3; assay type: biochemical; conditions: 1 μM ATP; read-out: CDK6/cyclinD IC50
T2 construct: N-terminal, 6His-tagged full-length human cdk6 (MW=38 kDa); 6His (N); made in house; host or cells: Sf21 cells
T2 sequence (Q00534 whole entry): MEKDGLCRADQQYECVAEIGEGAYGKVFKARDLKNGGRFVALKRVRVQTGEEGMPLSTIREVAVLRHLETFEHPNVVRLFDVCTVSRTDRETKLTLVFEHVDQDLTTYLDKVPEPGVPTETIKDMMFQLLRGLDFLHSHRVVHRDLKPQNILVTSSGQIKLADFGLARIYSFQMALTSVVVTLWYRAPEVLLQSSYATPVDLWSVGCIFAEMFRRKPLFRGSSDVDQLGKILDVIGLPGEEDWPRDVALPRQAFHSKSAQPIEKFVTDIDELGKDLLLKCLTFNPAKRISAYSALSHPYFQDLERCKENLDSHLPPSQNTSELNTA
T2 sequence (P30281 whole entry partner): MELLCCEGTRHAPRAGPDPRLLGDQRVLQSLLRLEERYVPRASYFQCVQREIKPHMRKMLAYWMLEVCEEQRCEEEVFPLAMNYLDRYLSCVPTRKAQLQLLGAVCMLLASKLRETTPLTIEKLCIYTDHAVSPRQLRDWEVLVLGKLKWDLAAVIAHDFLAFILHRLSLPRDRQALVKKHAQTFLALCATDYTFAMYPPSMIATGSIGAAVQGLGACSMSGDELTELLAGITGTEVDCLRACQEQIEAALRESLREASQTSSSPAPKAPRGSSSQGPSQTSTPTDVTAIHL
Protocol: CDK6/cyclinD3 (Accession Number for CDK6; GenBank X66365, for Cyclin D3; EMBL M90814):
N-terminal, 6His-tagged full-length human cdk6 (MW=38 kDa) complexed with N-terminal GST-tagged full-length human cyclin D3 (MW=59 kDa) were expressed in Sf21 cells. Recombinant protein complex was purified using glutathione-agarose and activated with CAK, and repurified with Ni2+/NTA-agarose column. Purity was measured to be at least 68%. Specific Activity was measured to be 39 U/mg, where one unit of cdk6/cyclinD3 activity is defined as 1 nmol phosphate incorporated into 0.1 mg/ml histone H1 per minute at 30° C. with a final ATP concentration of 100 μM. Enzyme was stored at concentration of 0.1 mg/ml in 50 mM Tris-HCl, pH 7.5, 270 mM sucrose, 150 mM NaCl, 1 mM benzamidine, 0.2 mM PMSF, 0.1% 2-mercaptoethanol, 0.1 mM EGTA, 0.03% Brij 35.

[3] = test system: A375 Melanoma xenograft tumors; assay: Anti-tumor activity in the A375 Melanoma nude mouse xenograft model; assay type: in vivo; conditions: 60 mg/Kg ip daily in 30% CAPTISOL
Protocol: FIG. 1 is a graph of tumor size versus time for mice bearing A375 Melanoma xenograft tumors receiving either 60 mg/Kg compound 8 in 30% CAPTISOL iv daily or vehicle only.
(c) An In Vivo Study of the Anti-Tumor Activity of Compound 8 in 30% CAPTISOL in the A375 Melanoma Nude Mouse Xenograft Model
Mice were divided into two groups of 5 to 6 mice each. Tumor volumes at the commencement of treatment were 560±230 mm^3. Compound 8 in 30% CAPTISOL was administered daily (60 mg/Kg ip) to one group of animals, while the second group of animals received an equal volume of vehicle.

Row | IC50 (CDK1/cyclinB) | IC50 (CDK6/cyclinD3) | melting point | SMILES | tumor growth (in words) [1] | increase in tumor size ([1]; after 10 days, vehicle about 450% increase) | decrease in tumor size ([2]; 60 mg/Kg daily in 30% CAPTISOL, after 10 days, vehicle about 230% change) | tumor growth (in words) [2] | increase in tumor size ([2]; 30 mg/Kg daily in 30% CAPTISOL, after 10 days, vehicle about 230% change) | tumor growth (in words) [3] | increase in tumor size ([3]; after 10 days, vehicle about 130% increase)
1 | < 0.1 µM | 0.1 to 1 µM |  | CC(C)(C)c1cnc(CSc2cnc(NC(=O)Cc3ccc(OCCCC(=O)NO)cc3)s2)o1 [Compound 9, 4-(4-(2-(5-((5-tert-butyloxazol-2-yl)methylthio)thiazol-2-ylamino)-2-oxoethyl)phenoxy)-N-hydroxybutanamide] | able to attenuate tumor growth | ~50% | about 50% | able to attenuate tumor growth |  |  | 
2 | < 0.1 µM | 0.1 to 1 µM |  | CC(C)(C)c1cnc(CSc2cnc(NC(=O)CCCCCCC(=O)NO)s2)o1 [Compound 8, N^1-(5-((5-tert-butyloxazol-2-yl)methylthio)thiazol-2-yl)-N^8-hydroxyoctanediamide] |  |  |  | able to attenuate tumor growth | ~90% | able to attenuate tumor growth | 50%
3 | < 0.1 µM | 1 to 10 µM | 181 to 183 °C | CC(C)(C)c1cnc(CSc2cnc(NC(=O)C3CCN(c4ncc(C(=O)NO)cn4)CC3)s2)o1 [Compound 20, 2-(4-(5-((5-tert-butyloxazol-2-yl)methylthio)thiazol-2-ylcarbamoyl)piperidin-1-yl)-N-hydroxypyrimidine-5-carboxamide] |  |  |  |  |  |  | 
